Data taken from patent US11986477B2, “Drug combination and use for treating tumors” (INXMED (NANJING) CO., LTD., priority 2022, dated 2024).
“And” between values parts separate entries of the source, which are not always exact repeats. Identical values can stand only once.

Experiments:
[1] = tested on: lung cancer KPL cells; test: Lung cancer KPL cells incubated with drug for 48 hours, observed under microscope; assay type: cell-based; conditions: 48 h incubation; IN10018 10 μM, AZD9291 10 μM, Almonertinib 4.7 μM, Alflutinib 4.7 μM, single or combined
[2] = tested on: mouse colon cancer CT-26 cells; test: In vivo antitumor efficacy, subcutaneous allograft tumor model of colon cancer CT-26 cells in BALB/c mice; conditions: for Tumor volume on day 0: baseline at grouping, mean ± standard error, n=6; for TGI: day 15, vs control group; for TGI / Tumor volume on day 15: IN10018 25 mg/kg, combination 20+25 mg/kg, p.o. QD; for Tumor volume on day 15: day 15 after administration by groups
Procedure: (§1) 500 CO2 incubator. The cells were passaged by routine digestion with trypsin-EDTA two to three times a week. When the cells were in the exponential growth phase with 80%-0% saturation, the cells were harvested, counted and inoculated.
0.1 mL of a cell suspension containing 3×10^5 cells was inoculated subcutaneously into the right back of each mouse. When the tumor volume reached ˜59 mm^3 (on day 12 after cell inoculation), the mice were randomized into groups for administration according to the tumor volume, and the grouping information is shown in Table 2.
The tumor diameter was measured with a vernier caliper three times a week. The tumor volume was calculated by the formula: V=0.5×a×b^2, where a and b indicated the long and short diameter of the tumor, respectively.
Statistical analysis was performed based on tumor volume and tumor weight at the end of the trial using Prism Graphpad software. Comparisons among multiple groups were analyzed using Two-way ANOVA, Fisher's LSD test method. P<0.05 was considered a significant difference.

[3] = tested on: human non-small cell lung cancer HCC827 cells; test: In vivo antitumor efficacy, BALB/c-nude mouse subcutaneous xenograft tumor model of HCC827 cells; conditions: for tumor growth inhibition compared with the blank control group / TGI / Tumor volume on day 32 / Tumor volume on day 37: AZD9291 3 mg/kg, IN10018 25 mg/kg, combination 3+25 mg/kg; for tumor growth inhibition compared with the blank control group: statistical difference from control; for Tumor volume on day 0: baseline at grouping, n=5; for Tumor volume on day 0 / Tumor volume on day 32 / Tumor volume on day 37: mean ± SD; for TGI: day 32, vs control group; for TGI / Tumor volume on day 32 / Tumor volume on day 37: PO QD; for Tumor volume on day 32: day 32 after administration by groups; for Tumor volume on day 37: day 37 after administration by groups
Procedure: as §1, with “5%” for “500”, “80%-90%” for “80%-0%”, “inoculated. 0.1 mL of a cell suspension containing 5×10^6 cells was inoculated subcutaneously into the right back of each mouse.” for “inoculated.”
The experiment criteria was to investigate whether the tumor growth was inhibited, delayed or cured. Tumor diameter was measured three times a week using vernier calipers. Tumor volume was calculated according to the following formula: V=0.5×a×b^2, where a and b indicated the long diameter and short diameter of the tumor, respectively.
The tumor suppressive efficacy of the compounds was evaluated by TGI (%), which reflects the tumor growth inhibition rate.
Statistical analysis was performed based on tumor volume at the end of the trial using Prism Graphpad software. Comparisons among multiple groups were analyzed using Two-way ANOVA, Fisher's LSD test method, and P<0.05 was considered a significant difference. Comparisons between the two groups were analyzed using the t-test, Mann Whitney test method test, and P<0.05 was considered a significant difference.

[4] = Body weight and survival of HCC827 tumor-bearing BALB/c-nude mice during dosing; assay type: in vivo
Procedure: The use and welfare of laboratory animals were in accordance with the AAALAC regulations. Animals were monitored daily for health and death. Routine examinations included observation of tumor growth and the effects of drug treatment on the animals' daily behavior such as behavioral activities, food and water intake (visual inspection only), weight changes, appearance signs or other abnormalities. Animal deaths and side effects in each group were recorded based on the number of animals in each group.
The assay was carried out according to the dosing regimen, during which the animals were observed daily for feeding and drinking, and their body weights were recorded three times a week.

| SMILES | cell status observed under microscope [1] | tumor growth inhibition compared with the blank control group ([2]; AZD9291 20 mg/kg, AZD9291+IN10018 20+25 mg/kg, statistical difference from control) | Tumor volume on day 0 [2] [mm^3] | TGI ([2]; AZD9291 20 mg/kg) [%] | Tumor volume on day 15 ([2]; AZD9291 20 mg/kg) [mm^3] | tumor growth inhibition compared with the blank control group [3] | Tumor volume on day 0 [3] [mm^3] | TGI [3] [%] | Tumor volume on day 32 [3] [mm^3] | Tumor volume on day 37 [3] [mm^3] | Body weight on day 0 ([4]; baseline, day of administration by groups, mean ± SD) | Body weight on day 37 ([4]; day 37, AZD9291 3 mg/kg, IN10018 25 mg/kg, combination 3+25 mg/kg PO QD, mean ± SD) | Rate of change in body weight ([4]; day 37 vs day 0, AZD9291 3 mg/kg, IN10018 25 mg/kg, combination 3+25 mg/kg) [%] | Animal Survival ([4]; number of animals surviving on day 0/after administration, AZD9291 3 mg/kg, IN10018 25 mg/kg, combination 3+25 mg/kg) |
| --- | --- | --- | --- | --- | --- | --- | --- | --- | --- | --- | --- | --- | --- | --- |
| C=CC(=O)Nc1cc(Nc2nccc(-c3cn(C4CC4)c4ccccc34)n2)c(OC)cc1N(C)CCN(C)C [Almonertinib] | poor cell status | – | – | – | – | – | – | – | – | – | – | – | – | – |
| C=CC(=O)Nc1cc(Nc2nccc(-c3cn(C)c4ccccc34)n2)c(OCC(F)(F)F)nc1N(C)CCN(C)C [Alflutinib] | poor cell status | – | – | – | – | – | – | – | – | – | – | – | – | – |
| C=CC(=O)Nc1cc(Nc2nccc(-c3cn(C)c4ccccc34)n2)c(OC)cc1N(C)CCN(C)C [AZD9291, Osimertinib] | poor cell status | obvious tumor growth inhibition | 37.9 ± 12.9 | 33.2 | 1046.3±407.8 | obvious tumor growth inhibition | 148.6 ± 59.6 | 107.7 | 20.3±4.7 | 17.0±6.7 | 19.9 g and 19.9 ± 0.9 g | 19.4 g and 19.4 ± 1.4 g | −2.2 | 5/5 |
| COc1cc(C(=O)NC2CCN(C)CC2)c(F)cc1Nc1ncc(C(F)(F)F)c(Oc2cccc3c2C(=O)N(C)C3)n1 [IN10018] | better cell status | – | 39.2 ± 17.9 | −14.5 | 1766.9±732.5 | obvious tumor growth inhibition | 147.7 ± 56.3 | 104.1 | 79.2±51.8 | 69.6±46.6 | – | – | – | – |
